# Experimental data as given in ChEMBL document CHEMBL3785076, “Disposition of valproic acid in man” (Eur J Clin Pharmacol, 1977).
# Tests used:
# [1] = Plasma concentration in healthy human subjects (6 subjects) at 600 mg, po administered as single enteric-coated compound dose measured after 48 hrs by GLC method; format: ADME, organism-based
# [2] = Plasma concentration in healthy human subjects (6 subjects) at 600 mg, po administered as single enteric-coated compound dose measured after 30 hrs by GLC method; format: ADME, organism-based
# [3] = Drug concentration in saliva of healthy human subjects (6 subjects) at 1200 mg, po for 12 days administered as enteric-coated compound dose measured under steady state conditions by GLC method relative to plasma drug level; format: ADME, organism-based; details: in vivo, 288 h
# [4] = Tmax in healthy human subjects (6 subjects) at 600 mg, po administered as single enteric-coated compound dose measured by GLC method; format: ADME, organism-based; details: in vivo
# [5] = Plasma protein binding in healthy human subjects (6 subjects) measured under steady state conditions by equilibrium dialysis method; format: ADME, cell-free; details: read-out: PPB (converted)
# [6] = Plasma concentration in healthy human subjects (6 subjects) at 600 mg, po administered as single enteric-coated compound dose measured after 6 hrs by GLC method; format: ADME, organism-based
# [7] = Plasma concentration in healthy human subjects (6 subjects) at 600 mg, po administered as single enteric-coated compound dose measured after 10 hrs by GLC method; format: ADME, organism-based
# [8] = system: Homo sapiens; assay: Drug lag time in healthy human subjects (6 subjects) at 600 mg, po administered as single enteric-coated compound dose measured by GLC method; format: ADME, organism-based; details: in vivo
# [9] = Plasma protein binding in healthy human subjects (6 subjects) assessed as unbound fraction level measured under steady state conditions by equilibrium dialysis method; format: ADME, cell-free
# [10] = Drug concentration in saliva of healthy human subjects (6 subjects) at 600 mg, po administered as single enteric-coated compound; format: ADME, organism-based; details: in vivo
# [11] = Plasma concentration in healthy human subjects (6 subjects) at 600 mg, po administered as single enteric-coated compound dose measured after 2 hrs by GLC method; format: ADME, organism-based
# [12] = Ratio of urinary excretion of valproic acid to urinary excretion of VPA-conjugates in healthy human subjects (6 subjects) at 600 mg, po administered as single enteric-coated compound; format: ADME, organism-based, Urine; details: in vivo
# [13] = system: Homo sapiens; assay: Mean steady state plasma concentration in healthy human subjects (6 subjects) at 1200 mg, po for 12 days administered as enteric-coated compound dose by GLC method; format: ADME, organism-based; details: in vivo, 288 h
# [14] = Half life in human measured over 24 hrs; format: ADME, organism-based; details: in vivo
# [15] = Plasma concentration in healthy human subjects (6 subjects) at 600 mg, po administered as single enteric-coated compound dose measured after 4 hrs by GLC method; format: ADME, organism-based
# [16] = Elimination rate constant during beta-phase in healthy human subjects (6 subjects) at 600 mg, po administered as single enteric-coated compound dose measured by GLC method; format: ADME, organism-based; details: in vivo
# [17] = Ratio of urinary excretion of valproic acid to urinary excretion of VPA-conjugates in healthy human subjects (6 subjects) at 1200 mg, po for 12 days administered as enteric-coated compound dose measured during 24 hrs relative to total drug excretion; format: ADME, organism-based, Urine; details: in vivo
# [18] = Plasma concentration in healthy human subjects (6 subjects) at 600 mg, po administered as single enteric-coated compound dose measured after 3 hrs by GLC method; format: ADME, organism-based
# [19] = Plasma concentration in healthy human subjects (6 subjects) at 600 mg, po administered as single enteric-coated compound dose measured after 24 hrs by GLC method; format: ADME, organism-based
# [20] = AUC in healthy human subjects (6 subjects) at 600 mg, po administered as single enteric-coated compound dose measured by GLC method; format: ADME, organism-based; details: in vivo
# [21] = system: Homo sapiens; assay: Apparent volume of distribution in healthy human subjects (6 subjects) at 600 mg, po administered as single enteric-coated compound dose measured by GLC method; format: ADME, organism-based; details: in vivo
# [22] = Terminal half life in healthy human subjects (6 subjects) at 600 mg, po administered as single enteric-coated compound dose measured by GLC method; format: ADME, organism-based; details: in vivo, read-out: beta t1/2 (converted)
# [23] = Steady state plasma concentration before morning dose in healthy human subjects (6 subjects) at 1200 mg, po for 12 days administered as enteric-coated compound dose by GLC method; format: ADME, organism-based; details: read-out: Cpss
# [24] = Plasma concentration in healthy human subjects (6 subjects) at 600 mg, po administered as single enteric-coated compound dose measured after 72 hrs by GLC method; format: ADME, organism-based
# [25] = Total plasma clearance in healthy human subjects (6 subjects) at 600 mg, po administered as single enteric-coated compound dose measured by GLC method; format: ADME, organism-based
# [26] = Half life at steady state in healthy human subjects (6 subjects) at 1200 mg, po for 12 days administered as enteric-coated compound dose by GLC method; format: ADME, organism-based; details: in vivo, read-out: t1/2ss (converted)
smiles,measurement,setting,value
CCCC(CCC)C(=O)[O-].[Na+] [VALPROATE SODIUM],concentration at 48 h,[1],6500 ng/mL
same,concentration at 30 h,[2],14000 ng/mL
same,Drug uptake,[3],1.3%
same,Tmax,[4],3.7 h
same,fraction unbound,[5],0.067
same,concentration at 6 h,[6],53200 ng/mL
same,concentration at 10 h,[7],38400 ng/mL
same,Tlag,[8],1.3 h
same,fraction unbound,[9],0.067
same,Drug uptake,[10],< 0.5 µg/mL
same,concentration at 2 h,[11],10300 ng/mL
same,Ratio,[12],0.158
same,Cpss,[13],81.3 µg/mL
same,half-life,[14],8 h
same,concentration at 4 h,[15],58100 ng/mL
same,k el,[16],1.25e-05 s⁻¹
same,Ratio,[17],1.127
same,concentration at 3 h,[18],42800 ng/mL
same,concentration at 24 h,[19],17600 ng/mL
same,AUC,[20],1210 µg·h/mL
same,Vbeta,[21],0.15 L/kg
same,half-life,[22],15.9 h
same,concentration at 288 h,[23],75300 ng/mL
same,concentration at 72 h,[24],2500 ng/mL
same,CL/F,[25],0.107 mL/min/kg
same,half-life,[26],17.3 h
